# Columns and labels:
# Assay in all cases: In vitro antibacterial evaluation: minimum inhibitory concentration (MIC), broth dilution method
# Type in all cases: cell-based
# [1] = test system: Streptococcus sp.
# Method in brief: (§1)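 First, organisms are seeded at 5×10^5 CFU/mL into Muller-Hinton II […]. Next, antibiotic is applied across 64-0.06 μg/mL by broth dilution (NCCLS M7-A2). Finally, the lowest inhibitory concentration is recorded as MIC.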
# [2] = test system: Escherichia coli
# Method in brief: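 NCCLS M7-A2 broth dilution; Muller-Hinton II […]; 5×10^5 CFU/mL; 64-0.06 μg/mL. MIC = lowest concentration with no growth.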
# [3] = test system: Staphylococcus sp.
# Method in brief: as §1
# [4] = test system: Enterococcus sp.
# Method in brief: as §1
# [5] = broth dilution, inoculum 5×10^5 CFU/mL, 18 hours at 35° C.
# [6] = broth dilution, 5×10^5 CFU/mL, 18 hours at 35° C.
smiles,measurement,setting,value
CC(c1ccccc1)C1NC(=O)CNC(=O)C(CO)NC(=O)C(C(O)C2CNC(=N)N2C2OC(CO)C(O)C(O)C2O)NC(=O)C(C(O)C2CNC(=N)N2)NC(=O)C(Cc2ccc(OC3OC(CO)C(OC4OC5COC(c6ccc(-c7ccc(Cl)cc7)cc6)OC5C(O)C4O)C(O)C3O)cc2)NC1=O (stereo not shown) [Example 178],MIC Streptococcus agalactiae (GC 4564),[1]; [5],<0.06 mg/L
same,MIC Streptococcus pneumoniae (ATCC 6301),[1]; [5],<0.06 mg/L
same,MIC Streptococcus pneumoniae (GC 1894),[1]; [5],<0.06 mg/L
same,MIC Streptococcus pneumoniae (GC 4565),[1]; [5],<0.06 mg/L
same,MIC Streptococcus pyogenes (GC 4563),[1]; [5],0.12 mg/L
same,MIC Streptococcus pneumoniae (ATCC 6301),[1]; strain ATCC 6301,<0.06 mg/L
same,MIC Streptococcus pneumoniae (GC 1894),[1]; strain GC 1894,<0.06 mg/L
same,MIC Streptococcus pyogenes (GC 4563),[1]; strain GC 4563,0.12 mg/L
same,MIC Streptococcus agalactiae (GC 4564),[1]; strain GC 4564,<0.06 mg/L
same,MIC Streptococcus pneumoniae (GC 4565),[1]; strain GC 4565,<0.06 mg/L
same,MIC Escherichia coli (ATCC 25922),[2]; strain ATCC 25922,>64 mg/L
same,MIC Escherichia coli (GC 4559),[2]; strain GC 4559,>64 mg/L
same,MIC Escherichi coli (GC 4560),[2]; strain GC 4560,16 mg/L
same,MIC Coagulase Negative Staphylococcus (GC 4547),[3]; [6],32 mg/L
same,MIC Coagulase Negative Staphylococcus (GC 4548),[3]; [6],0.5 mg/L
same,MIC Coagulase Negative Staphylococcus (GC 4549),[3]; [6],2 mg/L
same,MIC Coagulase Negative Staphylococcus (GC 4551),[3]; [6],4 mg/L
same,MIC Coagulase Negative Staphylococcus (GC 6257),[3]; [6],2 mg/L
same,MIC Staphylococcus aureus (ATCC 29213),[3]; [6],16 mg/L
same,MIC Staphylococcus aureus (GC 1131),[3]; [6],4 mg/L
same,MIC Staphylococcus aureus (GC 3051),[3]; [6],8 mg/L
same,MIC Staphylococcus aureus (GC 3053),[3]; [6],4 mg/L
same,MIC Staphylococcus aureus (GC 4541),[3]; [6],8 mg/L
same,MIC Staphylococcus aureus (GC 4542),[3]; [6],8 mg/L
same,MIC Staphylococcus aureus (GC 4544),[3]; [6],8 mg/L
same,MIC Staphylococcus aureus (GC 4545),[3]; [6],4 mg/L
same,MIC Staphylococcus aureus-SMITH (GC 4543),[3]; [6],4 mg/L
same,MIC Staphylococcus haemolyticus (GC 4546),[3]; [6],8 mg/L
same,MIC Staphylococcus aureus (ATCC 29213),"[3]; strain ATCC 29213, broth dilution, 18 hours at 35° C.",16 mg/L
same,MIC Staphylococcus aureus (GC 1131),"[3]; strain GC 1131, broth dilution, 18 hours at 35° C.",4 mg/L
same,MIC Staphylococcus aureus (GC 3051),"[3]; strain GC 3051, broth dilution, 18 hours at 35° C.",8 mg/L
same,MIC Staphylococcus aureus (GC 3053),"[3]; strain GC 3053, broth dilution, 18 hours at 35° C.",4 mg/L
same,MIC Staphylococcus aureus (GC 4541),"[3]; strain GC 4541, broth dilution, 18 hours at 35° C.",8 mg/L
same,MIC Staphylococcus aureus (GC 4542),"[3]; strain GC 4542, broth dilution, 18 hours at 35° C.",8 mg/L
same,MIC Staphylococcus aureus (GC 4544),"[3]; strain GC 4544, broth dilution, 18 hours at 35° C.",8 mg/L
same,MIC Staphylococcus aureus (GC 4545),"[3]; strain GC 4545, broth dilution, 18 hours at 35° C.",4 mg/L
same,MIC Enterococcus avium (GC 4558),[4]; [5],4 mg/L
same,MIC Enterococcus faecalis (ATCC 29212),[4]; [5],4 mg/L
same,MIC Enterococcus faecalis (GC 2242),[4]; [5],2 mg/L
same,MIC Enterococcus faecalis (GC 2691),[4]; [5],1 mg/L
same,MIC Enterococcus faecalis (GC 3059),[4]; [5],16 mg/L
same,MIC Enterococcus faecalis (GC 4552),[4]; [5],4 mg/L
same,MIC Enterococcus faecalis (GC 4553),[4]; [5],2 mg/L
same,MIC Enterococcus faecalis (GC 4554),[4]; [5],2 mg/L
same,MIC Enterococcus faecalis (GC 6189),[4]; [5],0.5 mg/L
same,MIC Enterococcus faecium (GC 2243),[4]; [5],4 mg/L
same,MIC Enterococcus faecium (GC 4556),[4]; [5],4 mg/L
same,MIC Enterococcus faecium (GC 4557),[4]; [5],8 mg/L
same,MIC Enterococcus faecalis (ATCC 29212),[4]; strain ATCC 29212,4 mg/L
same,MIC Enterococcus faecalis (GC 2242),[4]; strain GC 2242,2 mg/L
same,MIC Enterococcus faecium (GC 2243),[4]; strain GC 2243,4 mg/L
same,MIC Enterococcus faecalis (GC 2691),[4]; strain GC 2691,1 mg/L
same,MIC Enterococcus faecalis (GC 3059),[4]; strain GC 3059,16 mg/L
same,MIC Enterococcus faecalis (GC 4552),[4]; strain GC 4552,4 mg/L
same,MIC Enterococcus faecalis (GC 4553),[4]; strain GC 4553,2 mg/L
same,MIC Enterococcus faecalis (GC 4554),[4]; strain GC 4554,2 mg/L
same,MIC Enterococcus faecium (GC 4556),[4]; strain GC 4556,4 mg/L
same,MIC Enterococcus faecium (GC 4557),[4]; strain GC 4557,8 mg/L
same,MIC Enterococcus avium (GC 4558),[4]; strain GC 4558,4 mg/L
same,MIC Enterococcus faecalis (GC 6189),[4]; strain GC 6189,0.5 mg/L
COc1ccc2cc(C3OCC4OC(OC5C(CO)OC(Oc6ccc(CC7NC(=O)C(C(C)c8ccccc8)NC(=O)CNC(=O)C(CO)NC(=O)C(CC8CNC(=N)N8C8OC(CO)C(O)C(O)C8O)NC(=O)C(CC8CNC(=N)N8)NC7=O)cc6)C(O)C5O)C(O)C(O)C4O3)ccc2c1 (stereo not shown) [Example 190],MIC Streptococcus agalactiae (GC 4564),"[1]; Streptococcus agalactiae (GC 4564), 18 hours at 35° C.",16 mg/L
same,MIC Streptococcus pneumoniae (ATCC 6301),"[1]; Streptococcus pneumoniae (ATCC 6301), 18 hours at 35° C.",8 mg/L
same,MIC Streptococcus pneumoniae (GC 1894),"[1]; Streptococcus pneumoniae (GC 1894), 18 hours at 35° C.",4 mg/L
same,MIC Streptococcus pneumoniae (GC 4565),"[1]; Streptococcus pneumoniae (GC 4565), 18 hours at 35° C.",8 mg/L
same,MIC Streptococcus pyogenes (GC 4563),"[1]; Streptococcus pyogenes (GC 4563), 18 hours at 35° C.",16 mg/L
same,MIC Streptococcus agalactiae (GC 4564),[1]; [5],16 mg/L
same,MIC Streptococcus pneumoniae (ATCC 6301),[1]; [5],8 mg/L
same,MIC Streptococcus pneumoniae (GC 1894),[1]; [5],4 mg/L
same,MIC Streptococcus pneumoniae (GC 4565),[1]; [5],8 mg/L
same,MIC Streptococcus pyogenes (GC 4563),[1]; [5],16 mg/L
same,MIC Escherichia coli (ATCC 25922),"[2]; Escherichia coli (ATCC 25922), 18 hours at 35° C.",>64 mg/L
same,MIC Escherichia coli (GC 4559),"[2]; Escherichia coli (GC 4559), 18 hours at 35° C.",>64 mg/L
same,MIC Escherichia coli (GC 4560),"[2]; Escherichia coli (GC 4560), 18 hours at 35° C.",16 mg/L
same,MIC Staphylococcus aureus (ATCC 29213),[3]; strain ATCC 29213,16 mg/L
same,MIC Staphylococcus aureus (GC 1131),[3]; strain GC 1131,16 mg/L
same,MIC Staphylococcus aureus (GC 3051),[3]; strain GC 3051,16 mg/L
same,MIC Staphylococcus aureus (GC 3053),[3]; strain GC 3053,16 mg/L
same,MIC Staphylococcus aureus (GC 4541),[3]; strain GC 4541,8 mg/L
same,MIC Staphylococcus aureus (GC 4542),[3]; strain GC 4542,4 mg/L
same,MIC Staphylococcus aureus-SMITH (GC 4543),[3]; strain GC 4543,4 mg/L
same,MIC Staphylococcus aureus (GC 4544),[3]; strain GC 4544,16 mg/L
same,MIC Staphylococcus aureus (GC 4545),[3]; strain GC 4545,16 mg/L
same,MIC Staphylococcus haemolyticus (GC 4546),[3]; strain GC 4546,8 mg/L
same,MIC Coagulase Negative Staphylococcus (GC 4547),[3]; strain GC 4547,8 mg/L
same,MIC Coagulase Negative Staphylococcus (GC 4548),[3]; strain GC 4548,8 mg/L
same,MIC Coagulase Negative Staphylococcus (GC 4549),[3]; strain GC 4549,8 mg/L
same,MIC Coagulase Negative Staphylococcus (GC 4551),[3]; strain GC 4551,16 mg/L
same,MIC Coagulase Negative Staphylococcus (GC 6257),[3]; strain GC 6257,8 mg/L
same,MIC Enterococcus avium (GC 4558),"[4]; Enterococcus avium (GC 4558), 18 hours at 35° C.",16 mg/L
same,MIC Enterococcus faecalis (ATCC 29212),"[4]; Enterococcus faecalis (ATCC 29212), 18 hours at 35° C.",32 mg/L
same,MIC Enterococcus faecalis (GC 2242),"[4]; Enterococcus faecalis (GC 2242), 18 hours at 35° C.",32 mg/L
same,MIC Enterococcus faecalis (GC 2691),"[4]; Enterococcus faecalis (GC 2691), 18 hours at 35° C.",32 mg/L
same,MIC Enterococcus faecalis (GC 3059),"[4]; Enterococcus faecalis (GC 3059), 18 hours at 35° C.",32 mg/L
same,MIC Enterococcus faecalis (GC 4552),"[4]; Enterococcus faecalis (GC 4552), 18 hours at 35° C.",32 mg/L
same,MIC Enterococcus faecalis (GC 4553),"[4]; Enterococcus faecalis (GC 4553), 18 hours at 35° C.",32 mg/L
same,MIC Enterococcus faecalis (GC 4554),"[4]; Enterococcus faecalis (GC 4554), 18 hours at 35° C.",32 mg/L
same,MIC Enterococcus faecalis (GC 6189),"[4]; Enterococcus faecalis (GC 6189), 18 hours at 35° C.",32 mg/L
same,MIC Enterococcus faecium (GC 2243),"[4]; Enterococcus faecium (GC 2243), 18 hours at 35° C.",32 mg/L
same,MIC Enterococcus faecium (GC 4556),"[4]; Enterococcus faecium (GC 4556), 18 hours at 35° C.",32 mg/L
same,MIC Enterococcus faecium (GC 4557),"[4]; Enterococcus faecium (GC 4557), 18 hours at 35° C.",8 mg/L
same,MIC Enterococcus avium (GC 4558),[4]; [5],16 mg/L
same,MIC Enterococcus faecalis (ATCC 29212),[4]; [5],32 mg/L
same,MIC Enterococcus faecalis (GC 2242),[4]; [5],32 mg/L
same,MIC Enterococcus faecalis (GC 2691),[4]; [5],32 mg/L
same,MIC Enterococcus faecalis (GC 3059),[4]; [5],32 mg/L
same,MIC Enterococcus faecalis (GC 4552),[4]; [5],32 mg/L
same,MIC Enterococcus faecalis (GC 4553),[4]; [5],32 mg/L
same,MIC Enterococcus faecalis (GC 4554),[4]; [5],32 mg/L
same,MIC Enterococcus faecalis (GC 6189),[4]; [5],32 mg/L
same,MIC Enterococcus faecium (GC 2243),[4]; [5],32 mg/L
same,MIC Enterococcus faecium (GC 4556),[4]; [5],32 mg/L
same,MIC Enterococcus faecium (GC 4557),[4]; [5],8 mg/L

# Source: patent publication US8247211B2, “Glycopeptide antibiotics” (American Cyanamid Company, priority 2001, dated 2012)
